Experiments:
[1] = target: T1, wild type PKR (Homo sapiens, UniProt P30613); assay: PKR (wild type) enzyme AC50 assay, LDH/NADH-coupled, absorbance at 340 nm; format: biochemical; conditions: Table 4; AC50, enzyme assay; read-out: PKR WT
Outline: (§1)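 In this coupled kinetic format, PKR converts PEP and ADP to pyruvate, which LDH reduces while oxidising NADH. Test compounds, diluted from 10 mM DMSO stocks to a 100 μM top concentration, were preincubated 60 min before ADP was added.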

[2] = target: PKR R510Q (Homo sapiens, UniProt P30613, R510Q); assay: PKR mutant assay (R510Q), AC50, LDH/NADH-coupled, absorbance at 340 nm; format: biochemical; conditions: Table 4; AC50, enzyme assay; read-out: PK R510Q
Chain of PKR R510Q (P30613 whole entry R510Q): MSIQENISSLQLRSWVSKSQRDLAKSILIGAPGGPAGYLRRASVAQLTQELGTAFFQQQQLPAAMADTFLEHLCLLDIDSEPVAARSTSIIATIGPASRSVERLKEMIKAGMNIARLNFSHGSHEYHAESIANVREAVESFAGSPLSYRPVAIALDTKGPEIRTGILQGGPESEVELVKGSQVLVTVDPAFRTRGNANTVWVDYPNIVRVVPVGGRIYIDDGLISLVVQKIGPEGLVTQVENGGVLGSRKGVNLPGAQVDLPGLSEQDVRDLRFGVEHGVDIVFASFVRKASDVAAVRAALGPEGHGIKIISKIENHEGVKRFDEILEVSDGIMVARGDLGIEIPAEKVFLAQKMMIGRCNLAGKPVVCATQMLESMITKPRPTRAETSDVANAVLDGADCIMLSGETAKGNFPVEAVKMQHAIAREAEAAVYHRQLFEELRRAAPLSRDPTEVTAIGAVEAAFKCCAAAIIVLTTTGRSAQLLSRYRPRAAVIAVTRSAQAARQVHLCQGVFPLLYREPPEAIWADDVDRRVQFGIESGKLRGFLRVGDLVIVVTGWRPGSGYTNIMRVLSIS
Outline: as §1

[3] = target: T1, wild type PKR; assay: Cell based ATP assay in purified red blood cells (Cell-Titer-Glo); set-up: endogenous in cells; host or cells: purified red blood cells from healthy volunteers; conditions: Table 4; AC50, RBCs, overnight at 37° C., ATP levels
Outline: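 ATP levels were quantified by Cell-Titer-Glo after overnight 37 °C exposure of cells to compound (1:4 dilution series, 0.1% DMSO final). The cells were human erythrocytes, filter-purified to remove leukocytes and plated at 1×10^7 cells/mL in AGAM medium.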

[4] = target: PKR K410E (Homo sapiens, UniProt P30613, K410E); assay: PKR mutant assay (K410E), AC50, LDH/NADH-coupled, absorbance at 340 nm; format: biochemical; conditions: Table 4; AC50, enzyme assay
Chain of PKR K410E (P30613 whole entry K410E): as the sequence (P30613 whole entry R510Q) above, with K410E, Q510R counted along it
Outline: as §1

T1 sequence (P30613 whole entry): as the sequence (P30613 whole entry R510Q) above, with Q510R counted along it

| SMILES | EC50 [1] [nM] | EC50 [2] [nM] | EC50 [3] [nM] | EC50 [4] [nM] | Cell based ATP assay [3] |
| --- | --- | --- | --- | --- | --- |
| Cn1c2nc(Cc3c[nH]nn3)sc2c2cnn(Cc3ccccc3)c(=O)c21 [Compound 273] | > 800 | > 800 | > 1000 | > 800 | – |
| Cn1c2nc(Cc3cc[nH]n3)sc2c2cnn(Cc3cccc4c3NS(=O)(=O)N4)c(=O)c21 [Compound 275] | > 800 | > 800 | > 1000 | > 800 | – |
| Cn1c2nc(Cn3ccnc3)sc2c2cnn(Cc3cccc4[nH]ncc34)c(=O)c21 [Compound 277] | > 800 | > 800 | > 1000 | 301 to 800 | – |
| Cn1c2nc(Cn3cnnc3)sc2c2cnn(Cc3cccc4[nH]ncc34)c(=O)c21 [Compound 294] | > 800 | 301 to 800 | > 1000 | > 800 | – |
| Cn1c2nc(Cc3cn[nH]n3)sc2c2cnn(Cc3cccc(OC(F)(F)F)c3F)c(=O)c21 [Compound 329] | 301 to 800 | < 300 | ≤ 1000 | 301 to 800 | – |
| Cn1c2nc(Cc3cc[nH]n3)sc2c2cnn(Cc3ccc4c(n3)NC(=O)C4)c(=O)c21 [Compound 387] | 301 to 800 | < 300 | > 1000 | < 300 | – |
| Cn1c2nc(Cc3cc[nH]n3)sc2c2cnn(Cc3ccc4cc(Cl)[nH]c4n3)c(=O)c21 [Compound 388] | < 300 | < 300 | ≤ 1000 | < 300 | – |
| Cn1cc(Cc2nc3c(s2)c2cnn(Cc4cccc(C(N)=O)c4)c(=O)c2n3C)cn1 [Compound 389] | > 800 | 301 to 800 | > 1000 | > 800 | – |
| Cn1c2nc(Cn3ccnc3)sc2c2cnn(Cc3cccc(C(N)=O)c3)c(=O)c21 [Compound 390] | > 800 | > 800 | – | > 800 | No Fit |
| Cn1c2nc(Cc3cc[nH]n3)sc2c2cnn(Cc3ccc4cc(F)[nH]c4n3)c(=O)c21 [Compound 391] | < 300 | < 300 | ≤ 1000 | < 300 | – |
| Cn1ccc(CCn2ncc3c4sc(Cc5cc[nH]n5)nc4n(C)c3c2=O)n1 [Compound 392] | < 300 | < 300 | ≤ 1000 | < 300 | – |
| Cn1ccc(Cn2ncc3c4sc(CCc5cc[nH]n5)nc4n(C)c3c2=O)n1 [Compound 393] | < 300 | < 300 | ≤ 1000 | < 300 | – |
| Cn1c2nc(CCc3cc[nH]n3)sc2c2cnn(Cc3cccc(N)n3)c(=O)c21 [Compound 394] | < 300 | < 300 | ≤ 1000 | < 300 | – |
| Cc1nc2c(s1)c1cnn(Cc3cccc(C(N)=O)c3)c(=O)c1n2C [Compound 395] | > 800 | > 800 | > 1000 | 301 to 800 | – |
| Cn1c2nc(Oc3ccn[nH]3)sc2c2cnn(Cc3cccc(N)n3)c(=O)c21 [Compound 396] | < 300 | < 300 | ≤ 1000 | < 300 | – |
| Cn1c2nc(Cc3cc[nH]n3)sc2c2cnn(CC3CCCCC3)c(=O)c21 [Compound 397] | > 800 | > 800 | – | > 800 | No Fit |
| C=CCn1ncc2c3sc(Cc4ccccn4)nc3n(C)c2c1=O [Compound 398] | > 800 | > 800 | – | > 800 | No Fit |
| Cn1c2nc(Cc3cc[nH]n3)sc2c2cnn(CCc3cccnc3)c(=O)c21 [Compound 399] | > 800 | > 800 | – | > 800 | No Fit |
| Cn1ccc(CCn2ncc3c4sc(Cc5cccnc5)nc4n(C)c3c2=O)n1 [Compound 400] | > 800 | > 800 | > 1000 | > 800 | – |
| Cn1c2nc(Cc3cc[nH]n3)sc2c2cnn(CCc3cscn3)c(=O)c21 [Compound 401] | < 300 | < 300 | ≤ 1000 | < 300 | – |
| CCn1c2nc(Cc3cc[nH]n3)sc2c2cnn(Cc3ccccc3)c(=O)c21 [Compound 402] | > 800 | > 800 | – | > 800 | No Fit |
| Cn1c2nc(Cc3ccccn3)sc2c2cnn(CC3CCOCC3)c(=O)c21 [Compound 403] | > 800 | > 800 | – | > 800 | No Fit |
| C#CCn1ncc2c3sc(Cc4ccccn4)nc3n(C)c2c1=O [Compound 404] | < 300 | < 300 | ≤ 1000 | < 300 | – |

Next, values leading:

| EC50 [1] [nM] | EC50 [2] [nM] | EC50 [3] [nM] | EC50 [4] [nM] | Cell based ATP assay [3] | SMILES |
| --- | --- | --- | --- | --- | --- |
| < 300 | < 300 | ≤ 1000 | < 300 | – | Cn1c2nc(Cc3cccc(N)n3)sc2c2cnn(Cc3cccc4[nH]ncc34)c(=O)c21 [Compound 276] |
| < 300 | < 300 | ≤ 1000 | < 300 | – | Cn1c2nc(Cc3cc[nH]n3)sc2c2cnn(Cc3cccc4[nH]cnc34)c(=O)c21 [Compound 278] |
| < 300 | < 300 | ≤ 1000 | < 300 | – | Cn1c2nc(Cc3cc[nH]n3)sc2c2cnn(Cc3ccc4[nH]ncc4n3)c(=O)c21 [Compound 280] |
| < 300 | < 300 | ≤ 1000 | < 300 | – | Cn1ncc2nc(Cn3ncc4c5sc(Cc6cc[nH]n6)nc5n(C)c4c3=O)ccc21 [Compound 288] |
| < 300 | < 300 | ≤ 1000 | < 300 | – | Cn1c2nc(Cc3c[nH]nn3)sc2c2cnn(Cc3cccc(OC(F)(F)F)c3)c(=O)c21 [Compound 290] |
| < 300 | < 300 | ≤ 1000 | < 300 | – | Cn1c2nc(Cn3cccn3)sc2c2cnn(Cc3cccc4[nH]ncc34)c(=O)c21 [Compound 292] |
| < 300 | 301 to 800 | ≤ 1000 | < 300 | – | Cn1c2nc(Cn3cncn3)sc2c2cnn(Cc3cccc4[nH]ncc34)c(=O)c21 [Compound 293] |
| < 300 | < 300 | ≤ 1000 | < 300 | – | Cn1c2nc(Cc3c[nH]nn3)sc2c2cnn(Cc3ccc(OC(F)(F)F)cc3)c(=O)c21 [Compound 295] |
| < 300 | < 300 | ≤ 1000 | < 300 | – | Cn1c2nc([C@@H](O)c3cc[nH]n3)sc2c2cnn(Cc3cccc4[nH]ncc34)c(=O)c21 [Compound 304] |
| < 300 | < 300 | ≤ 1000 | < 300 | – | Cn1c2nc([C@H](O)c3cc[nH]n3)sc2c2cnn(Cc3cccc4[nH]ncc34)c(=O)c21 [Compound 305] |
| < 300 | < 300 | ≤ 1000 | < 300 | – | Cn1c2nc(Cc3cc[nH]n3)sc2c2cnn(Cc3cccc4[nH][nH]c(=O)c34)c(=O)c21 [Compound 307] |
| < 300 | < 300 | ≤ 1000 | < 300 | – | Cn1c2nc(Cc3cc[nH]n3)sc2c2cnn(Cc3cccc(O)c3)c(=O)c21 [Compound 369] |
| < 300 | < 300 | ≤ 1000 | < 300 | – | Cn1c2nc(Cc3cc[nH]n3)sc2c2cnn(Cc3n[nH]c4ccccc34)c(=O)c21 [Compound 372] |
| < 300 | < 300 | ≤ 1000 | < 300 | – | Cn1c2nc(Cc3cc[nH]n3)sc2c2cnn(Cc3n[nH]c4ncccc34)c(=O)c21 [Compound 374] |
| < 300 | < 300 | ≤ 1000 | < 300 | – | Cn1c2nc(Cc3cc[nH]n3)sc2c2cnn(Cc3n[nH]c4cccnc34)c(=O)c21 [Compound 379] |
| < 300 | < 300 | ≤ 1000 | < 300 | – | Cn1c2nc(Cc3cc[nH]n3)sc2c2cnn(Cc3ccc4cc[nH]c4n3)c(=O)c21 [Compound 380] |
| < 300 | < 300 | ≤ 1000 | < 300 | – | Cn1c2nc(Cc3cc[nH]n3)sc2c2cnn(Cc3ccc4nc[nH]c4n3)c(=O)c21 [Compound 381] |
| < 300 | < 300 | ≤ 1000 | < 300 | – | Cn1c2nc(Cc3n[nH]cc3F)sc2c2cnn(Cc3ccccc3)c(=O)c21 [Compound 382] |
| < 300 | < 300 | ≤ 1000 | < 300 | – | Cn1c2nc(Cc3cc[nH]n3)sc2c2cnn(Cc3ccc4c(F)c[nH]c4n3)c(=O)c21 [Compound 383] |
| < 300 | < 300 | ≤ 1000 | < 300 | – | Cn1c2nc(Cc3cc[nH]n3)sc2c2cnn(Cc3ccc4c(n3)NCC4)c(=O)c21 [Compound 384] |
| < 300 | < 300 | ≤ 1000 | < 300 | – | Cn1c2nc(Cc3cc[nH]n3)sc2c2cnn(CCc3cccc(N)n3)c(=O)c21 [Compound 385] |
| < 300 | < 300 | ≤ 1000 | < 300 | – | Cn1c2nc(Cc3cc[nH]n3)sc2c2cnn(Cc3ccc4oc(=O)[nH]c4n3)c(=O)c21 [Compound 386] |
